Measured values from US12527770B2 (Teikoku Pharma USA, Inc., priority 2016, dated 2026).
Like-named read-outs stand apart in the source and are kept apart here.

Legend:
[1] = tested on: patients after Austin bunionectomy surgery; conditions: for use of rescue medication (oxycodone), Mean (SD): n = 43
Protocol: Each transdermal delivery device was applied to the subject between 10 hours and 14 hours before each patient underwent Austin bunionectomy surgery with standard intraoperative anesthesia.
Pain was evaluated in patients at times from immediately after surgery through 72 hours after surgery using the Pain Intensity Numeric Rating Scale (NRS) and Summed Pain Intensity (NRSSPI). Pain was also evaluated based on the time and first use of rescue pain medication as well as total use of rescue medication.

- solubility of dexmedetomidine (in Duro-Tak 87-2979): less than 2%
- solubility of dexmedetomidine (in Duro-Tak 387/87-2353): 10-15%
- solubility of dexmedetomidine (in hydroxyl functionalized acrylate polymer): less than 1%
- solubility of dexmedetomidine (in levulinic acid): ~60%
- solubility of dexmedetomidine (in oleic acid): ~40%
Compound: Cc1cccc([C@H](C)c2cnc[nH]2)c1C [Dexmedetomidine]
- use of rescue medication (oxycodone), Mean (SD) ([1]; 0 to 24 Hours after Surgery): 23.5 (11.98)
- use of rescue medication (oxycodone), Mean (SD) ([1]; 0 to 48 Hours after Surgery): 37.5 (22.74)
- use of rescue medication (oxycodone), Mean (SD) ([1]; 0 to 72 Hours after Surgery): 46.4 (30.80)
- proportion of patients requesting rescue medication ([1]; first six hours after surgery, vs placebo): lower proportion
- pain intensity difference between dexmedetomidine and placebo ([1]; over a 4-fold mean plasma dexmedetomidine concentration range): constant
- pain rating (Numerical Rating Scale) compared to placebo ([1]; through 72 hours after surgery, 2×3 cm^2 patch): lower pain rating
- frequency of requests for rescue medication ([1]; vs placebo): less frequently
